Results taken from publication PMC6210068 (ACS Omega, 2018).

Tests used:
rat kidney TSPO = rat kidney TSPO (Rattus norvegicus, UniProt P16257); assay: Radioligand binding at TSPO
β3 adrenergic receptor = β3 adrenergic receptor (Homo sapiens, UniProt P13945); assay: PDSP off-target binding, β3 adrenergic
hDAT [1] = target: T1, hDAT (Homo sapiens, UniProt Q01959); settings: read-out: Ki, inhibition of binding of [3H]103 at hDAT; cited from earlier work
[2] = target: human 5HT1A serotonin receptor (Homo sapiens, UniProt P08908); assay: PDSP off-target binding, 5HT1A
human 5HT1A serotonin receptor, sequence (P08908 whole entry): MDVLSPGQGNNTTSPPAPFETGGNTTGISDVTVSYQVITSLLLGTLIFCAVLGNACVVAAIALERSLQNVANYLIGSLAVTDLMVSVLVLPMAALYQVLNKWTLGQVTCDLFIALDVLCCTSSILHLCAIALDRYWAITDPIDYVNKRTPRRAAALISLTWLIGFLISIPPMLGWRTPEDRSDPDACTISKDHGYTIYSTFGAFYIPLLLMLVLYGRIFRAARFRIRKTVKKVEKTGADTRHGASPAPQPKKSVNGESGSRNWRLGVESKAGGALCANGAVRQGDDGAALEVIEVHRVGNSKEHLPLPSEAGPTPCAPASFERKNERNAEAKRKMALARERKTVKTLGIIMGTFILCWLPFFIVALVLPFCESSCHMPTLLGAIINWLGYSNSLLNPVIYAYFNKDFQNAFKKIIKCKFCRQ

rat σ2 receptor = target: T2, rat σ2 receptor (Rattus norvegicus, UniProt Q5U3Y7); assay: PDSP binding, σ2 receptor
T2 sequence (Q5U3Y7 1-176): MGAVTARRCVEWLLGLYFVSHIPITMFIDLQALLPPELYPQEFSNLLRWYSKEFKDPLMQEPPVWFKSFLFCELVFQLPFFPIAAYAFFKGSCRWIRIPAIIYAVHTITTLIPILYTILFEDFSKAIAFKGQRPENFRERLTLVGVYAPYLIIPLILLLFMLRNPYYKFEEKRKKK

DOR = DOR (Homo sapiens, UniProt P41143); assay: Radioligand binding at DOR; settings: 10 μM
DOR, sequence (P41143 whole entry): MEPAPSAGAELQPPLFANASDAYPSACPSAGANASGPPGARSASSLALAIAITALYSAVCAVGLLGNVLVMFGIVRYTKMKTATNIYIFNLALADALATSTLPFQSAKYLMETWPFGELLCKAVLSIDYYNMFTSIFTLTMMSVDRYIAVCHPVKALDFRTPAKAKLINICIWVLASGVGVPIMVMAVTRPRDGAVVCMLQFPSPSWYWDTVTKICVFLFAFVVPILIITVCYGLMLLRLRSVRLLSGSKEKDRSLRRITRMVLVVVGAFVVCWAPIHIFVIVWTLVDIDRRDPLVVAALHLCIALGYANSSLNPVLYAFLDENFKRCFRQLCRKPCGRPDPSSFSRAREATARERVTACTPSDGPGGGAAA

5HT2C serotonin receptor = target: T3, 5HT2C serotonin receptor (Homo sapiens, UniProt P28335); assay: PDSP off-target binding, 5HT2C
T3 sequence (P28335 33-458): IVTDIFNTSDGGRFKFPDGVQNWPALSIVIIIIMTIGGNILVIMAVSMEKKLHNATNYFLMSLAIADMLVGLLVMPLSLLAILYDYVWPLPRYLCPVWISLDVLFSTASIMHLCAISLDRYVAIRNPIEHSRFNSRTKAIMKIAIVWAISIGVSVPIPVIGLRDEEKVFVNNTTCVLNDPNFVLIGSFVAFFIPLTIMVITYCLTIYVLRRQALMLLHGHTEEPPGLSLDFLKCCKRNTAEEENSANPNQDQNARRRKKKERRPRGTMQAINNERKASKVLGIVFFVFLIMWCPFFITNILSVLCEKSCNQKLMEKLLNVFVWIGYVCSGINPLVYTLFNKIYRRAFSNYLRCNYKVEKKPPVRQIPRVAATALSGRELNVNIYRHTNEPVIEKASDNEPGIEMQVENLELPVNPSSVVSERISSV

hDAT [3] = target: T1, hDAT; assay: Radioligand binding at DAT; settings: 10 μM; [3H]WIN35428; negative = enhanced radioligand binding
5HT2A serotonin receptor = 5HT2A serotonin receptor (Homo sapiens, UniProt P28223); assay: PDSP off-target binding, 5HT2A
5HT2A serotonin receptor, sequence (P28223 whole entry): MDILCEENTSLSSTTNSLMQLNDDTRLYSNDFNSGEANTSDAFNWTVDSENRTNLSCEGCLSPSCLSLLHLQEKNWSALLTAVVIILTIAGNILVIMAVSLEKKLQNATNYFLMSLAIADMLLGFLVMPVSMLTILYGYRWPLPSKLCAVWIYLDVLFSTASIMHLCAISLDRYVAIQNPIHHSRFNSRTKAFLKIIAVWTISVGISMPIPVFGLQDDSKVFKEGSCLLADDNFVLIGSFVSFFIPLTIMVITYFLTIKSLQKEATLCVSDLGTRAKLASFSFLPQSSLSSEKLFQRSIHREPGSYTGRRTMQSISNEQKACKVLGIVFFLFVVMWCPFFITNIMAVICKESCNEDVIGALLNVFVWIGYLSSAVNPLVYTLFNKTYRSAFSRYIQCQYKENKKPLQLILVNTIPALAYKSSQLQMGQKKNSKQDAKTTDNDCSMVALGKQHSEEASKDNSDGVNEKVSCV

muscarinic M5 receptor = muscarinic M5 receptor (Homo sapiens, UniProt P08912); assay: PDSP off-target binding, muscarinic M5
muscarinic M5 receptor, sequence (P08912 whole entry): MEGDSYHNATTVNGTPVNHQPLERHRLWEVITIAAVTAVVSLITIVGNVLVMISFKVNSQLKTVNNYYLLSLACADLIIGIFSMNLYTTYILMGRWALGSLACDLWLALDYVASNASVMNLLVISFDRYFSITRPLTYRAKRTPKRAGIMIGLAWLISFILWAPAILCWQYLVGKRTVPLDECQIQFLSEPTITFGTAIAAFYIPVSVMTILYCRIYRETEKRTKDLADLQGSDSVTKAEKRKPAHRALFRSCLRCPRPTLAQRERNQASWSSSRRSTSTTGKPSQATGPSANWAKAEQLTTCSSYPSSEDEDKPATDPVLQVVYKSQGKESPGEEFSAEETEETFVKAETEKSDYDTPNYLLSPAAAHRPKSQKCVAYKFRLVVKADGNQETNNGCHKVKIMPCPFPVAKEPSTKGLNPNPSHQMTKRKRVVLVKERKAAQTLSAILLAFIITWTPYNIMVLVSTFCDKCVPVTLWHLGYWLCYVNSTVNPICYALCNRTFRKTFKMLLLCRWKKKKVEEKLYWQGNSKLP

MOR = MOR (Homo sapiens, UniProt P35372); assay: biochemical; assay type: binding; settings: Table 2; 10 μM
MOR, sequence (P35372 whole entry): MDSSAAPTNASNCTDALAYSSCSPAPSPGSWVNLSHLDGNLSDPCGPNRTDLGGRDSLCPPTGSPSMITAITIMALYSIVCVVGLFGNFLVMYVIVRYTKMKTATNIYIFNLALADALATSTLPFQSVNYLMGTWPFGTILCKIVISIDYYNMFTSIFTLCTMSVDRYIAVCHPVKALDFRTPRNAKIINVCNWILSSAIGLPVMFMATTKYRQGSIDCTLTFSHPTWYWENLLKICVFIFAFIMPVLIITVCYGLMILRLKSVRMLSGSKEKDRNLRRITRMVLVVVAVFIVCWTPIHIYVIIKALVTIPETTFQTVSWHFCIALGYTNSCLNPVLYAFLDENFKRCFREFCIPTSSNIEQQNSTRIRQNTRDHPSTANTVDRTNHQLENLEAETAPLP

5HT2B serotonin receptor = 5HT2B serotonin receptor (Homo sapiens, UniProt P41595); assay: PDSP off-target binding, 5HT2B
5HT2B serotonin receptor, sequence (P41595 whole entry): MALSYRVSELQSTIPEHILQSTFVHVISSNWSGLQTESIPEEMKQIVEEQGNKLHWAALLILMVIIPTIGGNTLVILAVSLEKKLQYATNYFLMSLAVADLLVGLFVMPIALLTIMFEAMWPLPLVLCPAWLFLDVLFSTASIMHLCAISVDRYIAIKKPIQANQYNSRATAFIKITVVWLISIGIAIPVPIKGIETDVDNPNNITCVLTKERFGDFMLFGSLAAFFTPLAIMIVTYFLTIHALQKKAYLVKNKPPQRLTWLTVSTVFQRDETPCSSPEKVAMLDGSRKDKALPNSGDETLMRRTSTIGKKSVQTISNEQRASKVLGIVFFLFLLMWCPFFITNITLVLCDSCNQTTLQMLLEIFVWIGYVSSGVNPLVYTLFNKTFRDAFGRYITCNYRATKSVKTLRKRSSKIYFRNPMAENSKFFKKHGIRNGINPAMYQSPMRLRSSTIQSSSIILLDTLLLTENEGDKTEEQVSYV

KOR = KOR (Homo sapiens, UniProt P41145); assay: biochemical; assay type: binding; settings: 10 μM
KOR, sequence (P41145 whole entry): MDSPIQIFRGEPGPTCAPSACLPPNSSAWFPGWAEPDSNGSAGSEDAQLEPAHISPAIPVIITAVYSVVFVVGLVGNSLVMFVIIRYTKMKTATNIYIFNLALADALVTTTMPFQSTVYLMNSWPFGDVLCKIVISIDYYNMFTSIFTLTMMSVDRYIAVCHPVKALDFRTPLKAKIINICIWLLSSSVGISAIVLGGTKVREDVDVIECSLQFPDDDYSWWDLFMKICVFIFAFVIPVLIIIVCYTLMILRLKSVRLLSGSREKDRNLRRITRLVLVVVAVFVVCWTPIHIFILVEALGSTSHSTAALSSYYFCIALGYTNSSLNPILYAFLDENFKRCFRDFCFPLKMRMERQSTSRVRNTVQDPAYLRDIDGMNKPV

hA3AR = target: T4, hA3AR (Homo sapiens, UniProt P0DMS8); assay: A3AR binding
T4 sequence (P0DMS8 1-318): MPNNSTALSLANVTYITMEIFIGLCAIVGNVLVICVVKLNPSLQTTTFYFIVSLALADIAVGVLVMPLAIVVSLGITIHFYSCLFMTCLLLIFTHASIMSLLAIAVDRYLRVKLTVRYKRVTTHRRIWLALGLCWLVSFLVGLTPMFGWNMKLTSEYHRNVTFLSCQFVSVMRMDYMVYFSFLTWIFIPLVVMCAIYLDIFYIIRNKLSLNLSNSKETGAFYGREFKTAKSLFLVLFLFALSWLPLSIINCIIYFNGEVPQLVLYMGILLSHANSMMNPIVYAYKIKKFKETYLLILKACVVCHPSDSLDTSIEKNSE

T1 sequence (Q01959 whole entry): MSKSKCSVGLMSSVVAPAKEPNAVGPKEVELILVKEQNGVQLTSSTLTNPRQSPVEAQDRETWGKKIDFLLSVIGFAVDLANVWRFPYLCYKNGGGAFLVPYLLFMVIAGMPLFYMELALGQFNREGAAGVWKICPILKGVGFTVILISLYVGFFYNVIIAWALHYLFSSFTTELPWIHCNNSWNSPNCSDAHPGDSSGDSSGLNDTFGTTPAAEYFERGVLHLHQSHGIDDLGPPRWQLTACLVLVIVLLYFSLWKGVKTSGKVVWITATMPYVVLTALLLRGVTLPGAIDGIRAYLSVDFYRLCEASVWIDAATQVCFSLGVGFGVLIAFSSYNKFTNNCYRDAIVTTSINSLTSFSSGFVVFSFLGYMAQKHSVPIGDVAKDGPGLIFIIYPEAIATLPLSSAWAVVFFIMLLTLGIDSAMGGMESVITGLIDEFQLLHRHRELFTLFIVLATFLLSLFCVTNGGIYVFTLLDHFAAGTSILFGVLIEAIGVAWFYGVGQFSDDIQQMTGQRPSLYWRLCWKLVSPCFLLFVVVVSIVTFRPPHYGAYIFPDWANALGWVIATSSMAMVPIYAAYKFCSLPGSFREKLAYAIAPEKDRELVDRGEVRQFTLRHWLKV
rat kidney TSPO, sequence (P16257 whole entry): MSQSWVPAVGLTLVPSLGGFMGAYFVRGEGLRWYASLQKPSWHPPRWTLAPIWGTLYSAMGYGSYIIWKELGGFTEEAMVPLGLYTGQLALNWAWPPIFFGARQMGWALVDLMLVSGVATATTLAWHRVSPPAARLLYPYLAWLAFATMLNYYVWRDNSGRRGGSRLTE
β3 adrenergic receptor, sequence (P13945 whole entry): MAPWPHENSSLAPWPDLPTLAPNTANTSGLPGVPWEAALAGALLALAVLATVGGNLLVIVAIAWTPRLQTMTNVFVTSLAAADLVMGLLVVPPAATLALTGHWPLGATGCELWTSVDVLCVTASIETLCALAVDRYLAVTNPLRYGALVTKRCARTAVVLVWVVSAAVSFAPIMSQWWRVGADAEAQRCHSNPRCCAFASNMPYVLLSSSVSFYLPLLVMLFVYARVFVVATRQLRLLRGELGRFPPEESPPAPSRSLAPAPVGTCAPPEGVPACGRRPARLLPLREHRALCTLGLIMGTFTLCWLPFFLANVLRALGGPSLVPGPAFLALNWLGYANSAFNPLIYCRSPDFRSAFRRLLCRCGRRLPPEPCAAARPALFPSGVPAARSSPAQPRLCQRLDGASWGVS

Ki (β3 adrenergic receptor) [µM] | Ki [2] [µM] | Ki (rat σ2 receptor) [µM] | Ki (5HT2C serotonin receptor) [µM] | DAT, inhibition, % of control at 10 μM (hDAT [3]) | Ki (rat kidney TSPO; TSPO, Ki, rat TSPO, [3H]PK11195) [µM] | Ki (5HT2A serotonin receptor) [µM] | Ki (muscarinic M5 receptor) [µM] | Ki (5HT2B serotonin receptor) [µM] | KOR binding inhibition at 10 μM (KOR) [%] | Ki (hA3AR) [µM] | Compound | TSPO, inhibition of radioligand binding at 10 μM (class) (rat kidney TSPO; Table 1, 10 μM) | Ki (hDAT [1]) [µM] | DOR, inhibition of radioligand binding at 10 μM (class) (DOR; Table 1) | MOR, inhibition of radioligand binding at 10 μM (class) (MOR) | KOR, inhibition of radioligand binding at 10 μM (class) (KOR; Table 2) | DOR, inhibition of radioligand binding at 10 μM (class) (DOR; Table 2)
2.5 | 6.3 | 2.51 |  |  |  |  |  |  |  |  | CNC(=O)[C@@]12C[C@@H]1[C@@H](n1cnc3c(NC4CC4c4ccccc4)nc(C#Cc4ccccc4)nc31)[C@H](O)[C@@H]2O (mixture of isomers) [compound 10] | ^f (<30% inhibition of radioligand binding at 10 μM) | 2.31 | ^e (30–50% inhibition of radioligand binding at 10 μM) |  |  | 
 |  |  | 0.4 | –354% | 3.39 ± 0.64 | 1.3 ± 0.29 | 3.85 | 1.78 ± 0.28 | < 10 | 0.0473 ± 0.0189 | CCOC(=O)[C@@]12C[C@@H]1[C@@H](n1cnc3c(NC)nc(C#Cc4ccc(Cl)s4)cc31)[C@H](O)[C@@H]2O [compound 27] |  |  |  | ^d (<30% inhibition of radioligand binding at 10 μM) | ^d (<30% inhibition of radioligand binding at 10 μM) | ^d (<30% inhibition of radioligand binding at 10 μM)
